IC50 data for 18 compounds are collected here from PMC11728001, “Design, Synthesis, and Biological Evaluation of Novel Urea-Containing Carnosic Acid Derivatives with Anticancer Activity” (International Journal of Molecular Sciences, 2024).

Read-outs that look alike come from different tables or passages of the source.

Assay [1] concerns A375 melanoma cells. The experiment in a line: MTT cell viability assay, A375. The following applies: Homo sapiens, A-375, 72 h incubation, mean ± SD. Format: cell-based. As to the method: (§1) The effect of the compounds on cell viability was evaluated using the MTT assay. HCT116 (3000 cells/well), SW620 (8000 cells/well), SW480 (6000 cells/well), Caco-2 (4000 cells/well), A375 (1500 cells/well), MiaPaca-2 (2000 cells/well), and BJ (10,000 cells/well) cells were seeded in 96-well plates. After 24 h, the growth medium was replaced with a fresh medium containing the desired concentration of the compound or DMSO (control). After 72 h of incubation, the supernatant was removed and 100 µL of a mixture (1:1) of filtered MTT solution (1 mg/mL in PBS) with FBS-free medium was added to each well. After 1 h of incubation at 37 °C, the mixture was removed and 100 µL of DMSO was added to each well to dissolve the formed formazan crystals. Absorbance was immediately measured at 570 nm using a Benchmark Plus Microplate Reader (Bio-Rad Laboratories, Hercules, CA, USA). IC50 values were calculated using GraphPad Prism 9 software (GraphPad Software, San Diego, CA, USA) and expressed as the mean ± standard deviation (SD) of at least three independent experiments.

In assay [2] the test system is SW620 cells. The experiment in a line: MTT cell viability assay, SW620. It is filed as cell-based. The note with it: Homo sapiens, SW-620, 72 h incubation, mean ± SD. How it is done:
as §1
(In general: Tetrazolium assays rely on reduction of a dye to a coloured formazan, in cell work by metabolically active cells.)

Assay [3] relates to SW480 cells. Briefly: MTT cell viability assay, SW480. The following applies: Homo sapiens, 72 h incubation, mean ± SD. It is filed as cell-based. As to the method: as §1
Assay [4] relates to HCT116 colorectal cancer cell line. Briefly: MTT cell viability assay, HCT116. It is filed as cell-based. The note with it: Homo sapiens, HCT-116, 72 h incubation, mean ± SD. How it is done: The antiproliferative activity of CA 1 and its derivatives was evaluated against a colorectal cancer (CRC) cell line (HCT116) using the MTT assay. The anticancer drug cisplatin was used as the reference drug.
as §1

Assay [5] has as its system MiaPaca-2 pancreatic cancer cells. Briefly: MTT cell viability assay, MiaPaca-2. It is filed as cell-based. The following applies: Homo sapiens, MIA PaCa-2, 72 h incubation, mean ± SD. How it is done:
as §1

The test system of assay [6] is Caco-2 cells. Briefly: MTT cell viability assay, Caco-2. It is filed as cell-based. The note with it: Homo sapiens, 72 h incubation, mean ± SD. How it is done:
as §1

Assay [7] deals with A375 melanoma cells. Also on record: method as in PMID 23229057. The note with it: from literature, same methodology; cited from earlier work.
Assay [8] deals with SW620 cells. Also on record: method as in PMID 31909511. The note with it: obtained previously by the research group, same methodology; cited from earlier work.
Assay [9] relates to MiaPaca-2 pancreatic cancer cells. Also on record: method as in PMID 18007390. The following applies: from literature, same methodology; cited from earlier work.
Assay [10] relates to BJ non-tumoral fibroblast cell line. Also on record: method as in PMID 41058673. The note with it: obtained previously by the research group, same methodology; cited from earlier work.
The test system of assay [11] is HCT116 colorectal cancer cell line. Also on record: method as in PMID 29922789. The following applies: MTT, 72 h; obtained previously by the research group, same methodology; cited from earlier work.

For the compound `CC(C)c1cc2c(c(O)c1O)[C@@]1(C(=O)O)CCCC(C)(C)[C@@H]1CC2` [CA 1, Carnosic acid], the IC50 was 27.6 ± 0.5 µM in assay [1]; 18 ± 2 µM in assay [2]; 21.8 ± 0.7 µM in assay [3]; 42 ± 4 µM in [4]; 21 ± 2 µM in assay [5]; 34 ± 2 µM in [6].
As to `N.N.[Cl][Pt][Cl]` [Cisplatin, cisplatin], the half-inhibitory concentration (IC50) in [7] is 3 ± 1 µM; in assay [8], 1.4 ± 0.5 µM; in [9] it was 5 ± 1 µM; in [10], 10 ± 2 µM; in [11], 21 ± 1 µM.
`CC(=O)Oc1c(C(C)C)cc2c(c1OC(C)=O)[C@@]1(C(=O)O)CCCC(C)(C)[C@@H]1CC2` [Compound 2, (4aR,10aS)-5,6-Diacetoxy-7-isopropyl-1,1-dimethyl-1,3,4,9,10,10a-hexahydrophenanthrene-4a(2H)-carboxylic acid] showed an IC50 in [4] of 44 ± 4 µM.
The same measure, in the same setting: the same measure for `CC(=O)Oc1c(C(C)C)cc2c(c1OC(C)=O)[C@@]1(N=C=O)CCCC(C)(C)[C@@H]1CC2` [Compound 5, (4bR, 8aS)-4b-Isocyanato-2-isopropyl-8,8-dimethyl-4b,5,6,7,8,8a,9,10-octahydrophenanthrene-3,4-diyl diacetate]: 28 ± 3 µM; for `CNC(=O)N[C@]12CCCC(C)(C)[C@@H]1CCc1cc(C(C)C)c(OC(C)=O)c(OC(C)=O)c12` [Compound 6, (4bR,8aS)-2-isopropyl-8,8-dimethyl-4b-(3-methylureido)-4b,5,6,7,8,8a,9,10-octahydrophenanthrene-3,4-diyl diacetate]: 55 ± 5 µM.
As to `CCNC(=O)N[C@]12CCCC(C)(C)[C@@H]1CCc1cc(C(C)C)c(OC(C)=O)c(OC(C)=O)c12` [Compound 7, (4bR,8aS)-4b-(3-Ethylureido)-2-isopropyl-8,8-dimethyl-4b,5,6,7,8,8a,9,10-octahydrophenanthrene-3,4-diyl diacetate], the IC50 in assay [4] came to 44 ± 4 µM.
Consider `CCCNC(=O)N[C@]12CCCC(C)(C)[C@@H]1CCc1cc(C(C)C)c(OC(C)=O)c(OC(C)=O)c12` [Compound 8, (4bR,8aS)-2-isopropyl-8,8-dimethyl-4b-(3-propylureido)-4b,5,6,7,8,8a,9,10-octahydrophenanthrene-3,4-diyl diacetate], for which, in [4], the IC50 is 31 ± 1 µM.
`CCCCN(C)C(=O)N[C@]12CCCC(C)(C)[C@@H]1CCc1cc(C(C)C)c(OC(C)=O)c(OC(C)=O)c12` [Compound 9, (4bR,8aS)-4b-(3-butyl-3-methylureido)-2-isopropyl-8,8-dimethyl-4b,5,6,7,8,8a,9,10-octahydrophenanthrene-3,4-diyl diacetate] returned an IC50 in assay [4] of 22 ± 1 µM.
In assay [4], `CC(=O)Oc1c(C(C)C)cc2c(c1OC(C)=O)[C@@]1(NC(=O)NCC(C)C)CCCC(C)(C)[C@@H]1CC2` [Compound 10, (4bR,8aS)-4b-(3-isobutylureido)-2-isopropyl-8,8-dimethyl-4b,5,6,7,8,8a,9,10-octahydrophenanthrene-3,4-diyl diacetate] registered an IC50 of 22 ± 2 µM.
Still for that read-out and setting: the same measure for `CC(=O)Oc1c(C(C)C)cc2c(c1OC(C)=O)[C@@]1(NC(=O)NCC(C)(C)CN(C)C)CCCC(C)(C)[C@@H]1CC2` [Compound 11, (4bR,8aS)-4b-(3-(3-(dimethylamino)-2,2-dimethylpropyl)ureido)-2-isopropyl-8,8-dimethyl-4b,5,6,7,8,8a,9,10-octahydrophenanthrene-3,4-diyl diacetate]: 30 ± 1 µM; for `CONC(=O)N[C@]12CCCC(C)(C)[C@@H]1CCc1cc(C(C)C)c(OC(C)=O)c(OC(C)=O)c12` [Compound 12, (4bR,8aS)-2-isopropyl-4b-(3-methoxyureido)-8,8-dimethyl-4b,5,6,7,8,8a,9,10-octahydrophenanthrene-3,4-diyl diacetate]: 41 ± 3 µM.
Turning to `CC(=O)Oc1c(C(C)C)cc2c(c1OC(C)=O)[C@@]1(NC(=O)NCCc3ccccc3)CCCC(C)(C)[C@@H]1CC2` [Compound 13, (4bR,8aS)-2-isopropyl-8,8-dimethyl-4b-(3-phenethylureido)-4b,5,6,7,8,8a,9,10-octahydrophenanthrene-3,4-diyl diacetate], the 50% inhibitory concentration (IC50) in [2] worked out at 9 ± 1 µM; in assay [3] it was 8.6 ± 0.3 µM; in [4] it was 14 ± 2 µM; in assay [6], 10.9 ± 0.6 µM.
Compound `CC(=O)Oc1c(C(C)C)cc2c(c1OC(C)=O)[C@@]1(NC(=O)NCc3ccncc3)CCCC(C)(C)[C@@H]1CC2` [Compound 15, (4bR,8aS)-2-isopropyl-8,8-dimethyl-4b-(3-(pyridin-4-ylmethyl)ureido)-4b,5,6,7,8,8a,9,10-octahydrophenanthrene-3,4-diyl diacetate] yielded a half-maximal inhibitory concentration (IC50) in assay [4] of 33 ± 2 µM.
In the case of `CC(=O)Oc1c(C(C)C)cc2c(c1OC(C)=O)[C@@]1(NC(=O)NCCCN(C)c3ccccc3)CCCC(C)(C)[C@@H]1CC2` [Compound 16, (4bR,8aS)-2-isopropyl-8,8-dimethyl-4b-(3-(3-(methyl(phenyl)amino)propyl)ureido)-4b,5,6,7,8,8a,9,10-octahydrophenanthrene-3,4-diyl diacetate], the half-inhibitory concentration (IC50) in [1] was found to be 7.6 ± 0.6 µM; in assay [2], 6.4 ± 0.4 µM; in assay [3] it was 7.6 ± 0.6 µM; in assay [4], 12 ± 0.5 µM; in assay [5], 9.3 ± 0.4 µM; in [6], 9.6 ± 0.6 µM.
Compound `CC(=O)Oc1c(C(C)C)cc2c(c1OC(C)=O)[C@@]1(NC(=O)NCc3ccoc3)CCCC(C)(C)[C@@H]1CC2` [Compound 17, (4bR,8aS)-4b-(3-(furan-3-ylmethyl)ureido)-2-isopropyl-8,8-dimethyl-4b,5,6,7,8,8a,9,10-octahydrophenanthrene-3,4-diyl diacetate] registered a half-maximal inhibitory concentration (IC50) in [4] of 21 ± 2 µM.
Regarding `CC(=O)Oc1c(C(C)C)cc2c(c1OC(C)=O)[C@@]1(NC(=O)NCC3CCOCC3)CCCC(C)(C)[C@@H]1CC2` [Compound 18, (4bR,8aS)-2-isopropyl-8,8-dimethyl-4b-(3-((tetrahydro-2H-pyran-4-yl)methyl)ureido)-4b,5,6,7,8,8a,9,10-octahydrophenanthrene-3,4-diyl diacetate], the IC50 in assay [4] amounted to 51 ± 5 µM.
As for `CC(=O)Oc1c(C(C)C)cc2c(c1OC(C)=O)[C@@]1(NC(=O)NC3COC3)CCCC(C)(C)[C@@H]1CC2` [Compound 19, (4bR,8aS)-2-isopropyl-8,8-dimethyl-4b-(3-(oxetan-3-yl)ureido)-4b,5,6,7,8,8a,9,10-octahydrophenanthrene-3,4-diyl diacetate], the half-inhibitory concentration (IC50) in [4] is more than 60 µM.
In assay [4], `CC(=O)Oc1c(C(C)C)cc2c(c1OC(C)=O)[C@@]1(NC(=O)NCC3(C)COC3)CCCC(C)(C)[C@@H]1CC2` [Compound 20, (4bR,8aS)-2-isopropyl-8,8-dimethyl-4b-(3-((3-methyloxetan-3-yl)methyl)ureido)-4b,5,6,7,8,8a,9,10-octahydrophenanthrene-3,4-diyl diacetate] came in with a concentration for half-maximal inhibition (IC50) of 46 ± 2 µM.

Broadly, the IC50 is the concentration needed to halve the response being measured.
